Target: T1, hypothalamic CPT1 (Rattus norvegicus, UniProt P32198)
T1 sequence (P32198 1-773): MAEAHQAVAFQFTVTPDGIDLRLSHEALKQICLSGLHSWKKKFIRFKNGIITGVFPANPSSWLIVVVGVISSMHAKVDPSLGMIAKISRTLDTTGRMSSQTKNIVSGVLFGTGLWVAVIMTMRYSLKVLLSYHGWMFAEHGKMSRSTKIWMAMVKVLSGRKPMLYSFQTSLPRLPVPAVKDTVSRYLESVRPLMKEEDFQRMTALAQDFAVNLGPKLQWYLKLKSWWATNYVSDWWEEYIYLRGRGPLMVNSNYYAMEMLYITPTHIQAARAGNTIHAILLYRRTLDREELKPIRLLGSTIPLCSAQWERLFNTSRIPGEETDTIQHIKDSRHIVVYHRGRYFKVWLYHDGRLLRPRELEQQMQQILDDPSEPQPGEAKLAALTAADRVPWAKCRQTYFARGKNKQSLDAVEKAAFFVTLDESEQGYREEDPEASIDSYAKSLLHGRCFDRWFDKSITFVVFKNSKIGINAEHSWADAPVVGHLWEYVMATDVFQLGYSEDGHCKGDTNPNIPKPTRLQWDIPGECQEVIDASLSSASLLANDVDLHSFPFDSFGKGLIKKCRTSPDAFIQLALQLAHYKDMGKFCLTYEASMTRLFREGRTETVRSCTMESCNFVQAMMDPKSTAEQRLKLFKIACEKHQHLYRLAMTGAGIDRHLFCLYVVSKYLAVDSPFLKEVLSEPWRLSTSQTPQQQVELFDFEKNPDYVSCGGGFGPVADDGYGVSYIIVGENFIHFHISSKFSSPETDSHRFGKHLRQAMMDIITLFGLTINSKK
Test: ICV infusion with pancreatic-insulin clamp, glucose kinetics (Example 1)
Type: in vivo
Design: CPT1 activity was measured in the particulate fraction of protein extracts from animals treated with ICV control injections; from tissue; host or cells: hypothalamus (arcuate nucleus) of male Sprague-Dawley rats, in vivo or ex vivo; Insulin (iU/ml): unit not given here
Details: for Food Intake: measured prior to acute ICV infusion, except CPT1L-Ribo group (3 days after ICV); for decrease in glucose production (GP): basal and equal insulin levels (~20 μU/ml), ICV; for glucose production (GP) during pancreatic clamp vs ICV vehicle controls: ~basal insulin concentrations, p<0.01
Method: Hypothalamic inhibition of CPT1 inhibits glucose production. Experiments were also designed to examine the effect of central inhibition of CPT-1 on whole body insulin action (FIG. 4a,b). Insulin action was assessed by a combination of ICV infusions with systemic pancreatic-insulin clamp studies (FIG. 4b). In these studies, the daily food intake was matched in the rats receiving ICV vector and ICV CPT1L-Ribo (Table 1). All rats also received an intra-arterial infusion of [3-^3H]-glucose for the last 4 hr of ICV infusion and a pancreatic/insulin clamp (insulin 1 mU/kg.min; somatostatin 3 μg/kg/min) during the last 2 hr of the study (Obici et al., 2002a; Obici et al., 2001). As expected in the presence of ˜basal circulating insulin levels (clamp procedure; Table 1), the rate of glucose infusion (GIR) required to maintain euglycemia was marginal in ICV control studies (vector-ST1340- or vehicle-infused animals; ˜0.8 mg/kg/min). By contrast, following ICV infusion of inhibitors of CPT-1 expression or activity glucose had to be infused at the rate of ˜5 mg/kg/min in order to prevent hypoglycemia. Thus, central inhibition of CPT-1 activity in the presence of fixed and basal insulin concentrations stimulates insulin action on glucose homeostasis.
Animal preparation for in vivo experiments. We studied ninety-three 10-week old male Sprague-Dawley rats (Charles River Breeding Laboratories, Wilmington, Mass.). Rats were housed in individual cages and subjected to a standard light-dark cycle. Three weeks prior to the in vivo studies, we placed a chronic catheter in the third cerebral ventricle by stereotaxic surgery (Obici et al., 2002a; Obici et al., 2001; Liu et al., 1998). One week before the pancreatic-insulin clamp protocols, we placed additional catheters in the right internal jugular and left carotid artery (Obici et al., 2001; Liu et al., 1998). All ICV solutions were dissolved in artificial cerebral spinal fluid (aCSF). Food intake was monitored daily.
Measurements of in vivo glucose kinetics and pancreatic-insulin clamp procedure. The infusion studies lasted a total of 360 min (FIG. 3a). Briefly, at t=0 min a primed-continuous ICV infusion of either CPT1 inhibitors or control solution was initiated and maintained for the remainder of the study. 2-tetradecylglydate (TDGA, a gift from Dr. Manuel Guzman) was dissolved in DMSO, diluted into aCSF (Harvard Apparatus) and infused ICV at a rate of 50 pmoles/hr. […] Prior to the pancreatic-insulin clamp studies, rats receiving ICV injection of either CPT1L-Ribo or vector control three days prior to the clamp procedure were randomized into two pair-fed experimental groups. A primed-continuous infusion of HPLC-purified [3-^3H]-glucose (New England Nuclear, Boston, Mass.; 40 μCi bolus, 0.4 μCi/min) was started at t=120 min and continued for the duration of the study (Obici et al., 2002a; Obici et al., 2001; Liu et al., 1998). Finally, a pancreatic-insulin clamp (Obici et al., 2002a; Obici et al., 2001; Liu et al., 1998) was initiated at t=240 min and lasted for 2 hours. This procedure involved the infusion of somatostatin (3 μg/kg/min), insulin (1 mU/kg/min), and glucose as needed to prevent hypoglycemia, or antibodies against C peptide (Linco) and Melanocortin Receptor type 2 (Chemicon). The rate of insulin infusion was designed to replace normal basal levels in postabsorptive rats.
Radioactivity of [^3H]glucose in plasma was measured from supernatants of Ba(OH)2 and ZnSO4 precipitates after evaporation to dryness for the removal of tritiated water (Somogyi pellet). The specific activity of tritiated water in plasma (Somogyi filtrate) was determined from the total counts of the protein-free supernatant before and after evaporation to dryness. Under steady state conditions for plasma glucose concentration, the rate of glucose disappearance (Rd) equals the rate of glucose appearance (Ra). […]

Compound: CCCCCCCCCCCCCCNC(=O)N[C@H](CC(=O)[O-])C[N+](C)(C)C [ST1326, (R)-N-(tetradecylcarbamoyl)-aminocarnitine]
- Body wt. (Basal): 302 ± 4 g
- FFA (Basal): 0.5 ± 0.1 mM
- Glucose (Basal): 8.1 ± 0.7 mM
- Insulin (Basal): 1.4 ± 0.2 ng/mL
- Leptin (Basal): 0.9 ± 0.1 ng/mL
- Food Intake (Basal): 21 ± 2 g
- FFA (Clamp, steady-state): 0.4 ± 0.1 mM
- Glucose (Clamp, steady-state): 8.1 ± 0.8 mM
- Insulin (iU/ml) (Clamp, steady-state): 21 ± 2
- decrease in glucose production (GP): 44±7%
- glucose production (GP) during pancreatic clamp vs ICV vehicle controls: markedly inhibited GP

Compound: CPT1L-Ribo: plasmid (pTarget, CMV promoter) expressing a hammerhead ribozyme that specifically cleaves rat CPT1L mRNA, complexed to PEI for ICV injection (DNA CUGUACCAAAGAGCUGUAGAGUCCGUGAGGACGAAACGCCGCUCACAAUG)
- Body wt. (Basal): 277 ± 8 g
- FFA (Basal): 0.5 ± 0.1 mM
- Glucose (Basal): 8.2 ± 0.6 mM
- Food Intake (Basal): 14 ± 2 g
- FFA (Clamp, steady-state): 0.4 ± 0.1 mM
- Glucose (Clamp, steady-state): 8.1 ± 0.5 mM
- Insulin (iU/ml) (Clamp, steady-state): 21 ± 2
- decrease in glucose production (GP): 30±3%
- glucose production (GP) during pancreatic clamp vs ICV vehicle controls: markedly inhibited GP

Reference: US7705016B2, “Regulation of food intake by modulation of long-chain fatty acyl-CoA levels in the hypothalamus” (Albert Einstein College of Medicine of Yeshiva University, priority 2003, dated 2010)
